Article PMC9228185, “Accurate Mass Identification of an Interfering Water Adduct and Strategies in Development and Validation of an LC-MS/MS Method for Quantification of MPI8, a Potent SARS-CoV-2 Main Protease Inhibitor, in Rat Plasma in Pharmacokinetic Studies” (Pharmaceuticals, 2022)
“Also recorded” adds a separate entry of the source. Like-named read-outs stand apart in the source and are kept apart here.

Assays:
[1] = type: physicochemical; details: 1 mg/mL in acetonitrile, −80 °C
[2] = system: SARS-CoV-2 (USA-WA1/2020); parameters: method as in PMID 35229034; details: SARS-CoV-2 (USA-WA1/2020) in Vero E6 cells; read-out: EC50 to neutralize SARS-CoV-2; cited from earlier work
[3] = Stability of MPI8 in rat plasma (QC samples, LC-MS/MS); type: in vitro ADME
Procedure: The quantification of MPI8 concentrations in extracted plasma samples was performed on a 6500+ Triple Quad LC-MS/MS System using a Kinetex HILIC Column (unbonded silica stationary phase, 2.6 µm, 50 × 2.1 mm, 100 Å, Phenomenex, CA, USA). The optimized method used binary gradient mobile phases with water (containing 1 mM ammonium acetate) as mobile phase A and acetonitrile as mobile phase B. A flow rate of 0.4 mL/min was used with an injection volume of 2 μL. The autosampler and oven temperature were set at 10 °C and 30 °C, respectively. The running time was 5 min. In this study, the HILIC column, widely considered as an NP column, was eluted in a typical RP time program of the gradient: Phase B was initially kept at 5% for 0.2 min, increased from 5% to 90% in the next 1.3 min, then held at 90% for 1 min, and then decreased to 5% in 1.5 min, and kept stably at 5% for 1 min. The unique behavior of MPI8 on a HILIC column, which resembles an RP characteristic, was most likely due to its hydrophobic nature.
Eighteen microliters of blank rat plasma, 2 μL of working solution (10×) (or 20 μL of rat plasma samples from pharmacokinetic studies), and 180 μL of acetonitrile (containing 5 ng/mL of IS) were vortex-mixed for 2 min and then centrifuged at 14,000 rpm for 20 min at 4 °C. Eighty μL of the supernatant were transferred to a sample vial for LC-MS/MS analysis. All samples were kept on ice during sample processing.
The stability of MPI8 was examined by keeping four replicates of the QC samples at room temperature and on ice for 4 h, in the auto-sampler tray at 10 °C for 24 h, and in a freezer at −80 °C for 3 weeks; the freeze-thaw stability was obtained over three freeze-thaw cycles, by thawing at 4 °C for 2–3 h and then refreezing at −80 °C for 12–24 h. The concentration of MPI8 after each storage period was determined using the calibration curve analyzed on the same day. The accuracy was expressed by RE%, and the precision was CV%.

cathepsin L = details: selective over cathepsins B and K; cited from earlier work
[4] = Crossover pharmacokinetic study in rats after IV or oral MPI8 sulfonate; type: in vivo, Sprague-Dawley rats; details: for AUC(0-t): read-out: AUC0−10 h; for Cmax: po
Excerpt: The validated assay was applied in a crossover pharmacokinetic study to evaluate the oral bioavailability of MPI8 sulfonate in rats. The animal study protocol (#9132) was reviewed and approved by the Institutional Animal Care and Use Committee (IACUC) at Texas Southern University on 11 July 2020.
Male adult Sprague-Dawley rats were purchased from Envigo RMS (Indianapolis, IN, USA). Rats were cannulated via jugular vein a day before dosing. Three rats were intravenously administered a single dose of 5 mg/kg MPI8 sulfonate (5 mg/mL in 5% dextrose) via the jugular vein. Serial blood samples (about 0.1 mL) were collected from the cannulated jugular vein into heparin-coating tubes before dosing and at 2 min, 5 min, 15 min, 0.5 h, 1 h, 2 h, 4 h, 6 h, 8 h, 10 h, and 24 h time points after administration. After two weeks of washout period, the three rats were fasted overnight and orally administered a single dose of 50 mg/kg MPI8 sulfonate (20 mg/mL in water). Blood samples were collected before dosing and at 15 min, 0.5 h, 1 h, 1.5 h, 2 h, 2.5 h, 3 h, 4 h, 6 h, 8 h, 10 h, and 24 h time points after administration. Briefly, 12 time-point plasma samples from rats dosed intravenously and 13 time-point plasma samples from rats dosed orally were collected. Plasma samples were separated immediately by centrifugation of the blood samples at 13,000 rpm for 3 min and kept at −80 °C until analysis. The samples were processed following the procedure in Section 3.3.3. Three replicates for each time point were analyzed and the results were reported as mean values with standard deviation (SD) for each time point.
The pharmacokinetic parameters for each rat were estimated using Phoenix WinNonlin v8.3 software (Pharsight Corporation, Mountain View, CA, USA). Non-compartmental analysis was used to determine the pharmacokinetic parameters of MPI8. The pharmacokinetic parameters, including the area under the plasma concentration–time curve during the period of measurable observation (AUC0−10h), the area under the plasma concentration–time curve extrapolated to infinity (AUC0−inf), the apparent volume of distribution (Vz/F), the apparent clearance (CL/F), the total body mean residence time (MRT), and the terminal elimination half-life (T1/2) were estimated. The oral bioavailability (F) was calculated according to the following equation:(1) F=AUCoral×Dosei.v./AUCi.v.×Doseoral

[5] = parameters: method as in PMID 22915796, PMID 27027316; details: aldehyde bisulfite prodrug; cited from earlier work
[6] = Auto-sampler (10 °C 24 h), nominal 1.5 ng/mL
[7] = Auto-sampler (10 °C 24 h), nominal 25 ng/mL
[8] = Auto-sampler (10 °C 24 h), nominal 400 ng/mL
[9] = Bench top (4 h, 4 °C), nominal 1.5 ng/mL
[10] = Bench top (4 h, 4 °C), nominal 25 ng/mL
[11] = Bench top (4 h, 4 °C), nominal 400 ng/mL
[12] = Freeze and thaw (−80 °C to 4 °C, 3 cycles), nominal 1.5 ng/mL
[13] = Freeze and thaw (−80 °C to 4 °C, 3 cycles), nominal 25 ng/mL
[14] = Freeze and thaw (−80 °C to 4 °C, 3 cycles), nominal 400 ng/mL
[15] = Long-term (−80 °C, 20 days), nominal 1.5 ng/mL
[16] = Long-term (−80 °C, 20 days), nominal 400 ng/mL
[17] = male, Sprague-Dawley, in vivo, iv, rat, i.v. 5 mg/kg MPI8 sulfonate, NCA
[18] = male, Sprague-Dawley, in vivo, rat, oral 50 mg/kg MPI8 sulfonate, NCA
[19] = rat, i.v. 5 mg/kg MPI8 sulfonate, NCA

Question: For CC(OC(C)(C)C)C(NC(=O)OCc1ccccc1)C(=O)NC(CC1CCCCC1)C(=O)NC(C=O)CC1CCNC1=O (stereo not drawn) [MPI8], which “Stock solution stable for” value [1] is on record?
Answer: The value was 3 months.

Question: What about the EC50 [2] of the same compound?
Answer: The EC50 was 30 nM.

Question: And the “Calculated concentration (Mean ± SD)” value [3, 6]?
Answer: The value was 1.44 ± 0.11 ng/mL.

Question: What about the “Stability accuracy (RE%)” value [3, 6] of the same compound?
Answer: The value was −4.33%.

Question: What about the “Calculated concentration (Mean ± SD)” value [3, 7] of the same compound?
Answer: The value was 26.8 ± 1.91 ng/mL.

Question: And the “Stability accuracy (RE%)” value [3, 7]?
Answer: Its value is 7.20%.

Question: And the “Calculated concentration (Mean ± SD)” value [3, 8]?
Answer: The value was 458.5 ± 47.18 ng/mL.

Question: What about the “Stability accuracy (RE%)” value [3, 8] of the same compound?
Answer: The value was 14.63%.

Question: What about the “Calculated concentration (Mean ± SD)” value [3, 9] of the same compound?
Answer: Its value is 1.35 ± 0.11 ng/mL.

Question: And the “Stability accuracy (RE%)” value [3, 9]?
Answer: The value was −9.87%.

Question: And the “Calculated concentration (Mean ± SD)” value [3, 10]?
Answer: The value was 21.3 ± 0.12 ng/mL.

Question: And the “Stability accuracy (RE%)” value [3, 10]?
Answer: The value was −14.80%.

Question: And the “Calculated concentration (Mean ± SD)” value [3, 11]?
Answer: Its value is 340.25 ± 14.03 ng/mL.

Question: And the “Stability accuracy (RE%)” value [3, 11]?
Answer: The value was −14.94%.

Question: And the “Calculated concentration (Mean ± SD)” value [3, 12]?
Answer: The value was 1.33 ± 0.08 ng/mL.

Question: And the “Stability accuracy (RE%)” value [3, 12]?
Answer: Its value is −11.17%.

Question: And the “Calculated concentration (Mean ± SD)” value [3, 13]?
Answer: The value was 23.5 ± 1.41 ng/mL.

Question: What about the “Stability accuracy (RE%)” value [3, 13] of the same compound?
Answer: Its value is −6.00%.

Question: And the “Calculated concentration (Mean ± SD)” value [3, 14]?
Answer: Its value is 362.2 ± 11.56 ng/mL.

Question: What about the “Stability accuracy (RE%)” value [3, 14] of the same compound?
Answer: The value was −9.45%.

Question: And the “Calculated concentration (Mean ± SD)” value [3, 15]?
Answer: The value was 1.44 ± 0.19 ng/mL.

Question: And the “Stability accuracy (RE%)” value [3, 15]?
Answer: Its value is −4.22%.

Question: And the “Calculated concentration (Mean ± SD)” value ([3]; Long-term (−80 °C, 20 days), nominal 25 ng/mL)?
Answer: The value was 25.18 ± 1.37 ng/mL.

Question: What about the “Calculated concentration (Mean ± SD)” value [3, 16] of the same compound?
Answer: The value was 399 ± 17.61 ng/mL.

Question: What about the “Stability accuracy (RE%)” value [3, 16] of the same compound?
Answer: The value was −0.25%.

Question: What about the “Degradation under the experimental conditions” value ([3]; conditions of Table 4) of the same compound?
Answer: The value was “No significant degradation”.

Question: What about the “Stability at room temperature in rat plasma” value ([3]; room temperature) of the same compound?
Answer: Its value is “not stable”.

Question: What about the “Bench top stability accuracy (RE%)” value ([3]; room temperature, 50 ng/mL, n = 4) of the same compound?
Answer: Its value is −27.6%.

Question: What about the “Potency toward cathepsin L” value (cathepsin L) of the same compound?
Answer: The value was “potent”.

Question: And the C0 at 2 min ([4]; male, Sprague-Dawley, in vivo, iv, rat, i.v. 5 mg/kg MPI8 sulfonate, 2 min after dosing, read-out: Mean initial plasma concentration)?
Answer: The C0 at 2 min was 4480 ng/mL.

Question: What about the concentration at 10 h ([4]; male, Sprague-Dawley, in vivo, iv, rat, i.v. 5 mg/kg MPI8 sulfonate, 10 h post-dose, read-out: Mean plasma concentration) of the same compound?
Answer: The concentration at 10 h was 1.24 ng/mL.

Question: And the AUC(0-inf) [4, 17]?
Answer: The AUC(0-inf) was 618 ± 15.7 ng·h/mL.

Question: What about the MRT [4, 17] of the same compound?
Answer: Its MRT is 0.54 ± 0.1 h.

Question: And the half-life [4, 17]?
Answer: The half-life was 2.75 ± 0.53 h.

Question: What about the AUC(0-t) [4, 17] of the same compound?
Answer: The AUC(0-t) was 613 ± 15.4 ng·h/mL.

Question: What about the AUC(0-inf) [4, 18] of the same compound?
Answer: Its AUC(0-inf) is 1180 ± 288 ng·h/mL.

Question: And the MRT [4, 18]?
Answer: Its MRT is 2.52 ± 0.16 h.

Question: And the half-life [4, 18]?
Answer: Its half-life is 1.22 ± 0.46 h.

Question: What about the Tmax ([4]; male, Sprague-Dawley, in vivo, rat, oral 50 mg/kg MPI8 sulfonate, NCA, no unit in table (h)) of the same compound?
Answer: Its Tmax is 2.17 ± 0.58 h.

Question: And the AUC(0-t) [4, 18]?
Answer: Its AUC(0-t) is 1180 ± 290 ng·h/mL.

Question: And the CL/F ([4]; male, Sprague-Dawley, in vivo, rat, oral 50 mg/kg MPI8 sulfonate, NCA, read-out: CL/F (converted))?
Answer: The CL/F was 733 mL/min/kg.

Question: And the Vd/F ([4]; male, Sprague-Dawley, in vivo, rat, oral 50 mg/kg MPI8 sulfonate, NCA, read-out: Vz/F)?
Answer: Its Vd/F is 81.6 L/kg.

Question: And the bioavailability ([4]; male, Sprague-Dawley, rat, in vivo, 50 mg/kg, rat, oral 50 mg/kg vs i.v. 5 mg/kg MPI8 sulfonate, read-out: F (oral bioavailability))?
Answer: Its bioavailability is 15.8%.

Question: What about the Cmax ([4]; male, Sprague-Dawley, rat, in vivo, 50 mg/kg, oral 50 mg/kg MPI8 sulfonate) of the same compound?
Answer: The Cmax was 601 ng/mL.

Question: What about the Cmax ([4]; male, Sprague-Dawley, rat, in vivo, 50 mg/kg, oral 50 mg/kg MPI8 sulfonate, NCA, no unit in table (ng/mL)) of the same compound?
Answer: The Cmax was 601 ± 75 ng/mL.

Question: What about the CL/F [4, 19] of the same compound?
Answer: Its CL/F is 110.116 ± 3.5637 mL/min/kg.

Question: What about the Vz/F [4, 19] of the same compound?
Answer: Its Vz/F is 26,324.66 ± 5882.81 ml/kg.

Question: And the Plasma concentration ([4]; rat, i.v. 5 mg/kg MPI8 sulfonate, by 24 h)?
Answer: Its Plasma concentration is “undetectable”.

Question: For CC(C)C[C@H](NC(=O)OCc1ccccc1)C(=O)N[C@@H](C[C@@H]1CCNC1=O)C(O)S(=O)(=O)[O-].[Na+] (stereo partly drawn) [GC376], which “Conversion into active aldehyde form” value [5] is on record?
Answer: Its value is “quickly convert”.

Question: Which “Stock solution stable for” value [1] does the source give for Cc1cc(=O)n(-c2ccccc2)n1C [AP, antipyrine, reference compound] here?
Answer: Its value is 12 months.

Question: For CC(OC(C)(C)C)C(NC(=O)OCc1ccccc1)C(=O)NC(CC1CCCCC1)C(=O)NC(CC1CCNC1=O)C(O)S(=O)(=O)O (stereo not drawn) [MPI8 sulfonate], which “Conversion of prodrug to MPI8 in vivo” value ([4]; in vivo, rats) is on record?
Answer: Its value is “rapid conversion; also recorded: rapidly converts”.
